Experimental data taken from ChEMBL document CHEMBL1201862, “PubChem BioAssay data set” (2004).
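Exposure lasted 48 hours, with cells grown in 96-well plates and compounds tested at five concentrations. The concentration for 50% growth inhibition is given as GI50.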 Activity calls are given as the source filed them. No stated cut-off is given here; in the data, active = GI50 up to about 1.1 µM and inactive = higher.

Key:
Assay in all cases: DTP human tumour cell line panel, 48 h
Hs-578T = test system: Hs-578T
IGROV-1 = test system: IGROV-1
K562 = test system: K562
KM12 = test system: KM12
LOX IMVI = test system: LOX IMVI
MDA-N = test system: MDA-N
MOLT-4 = test system: MOLT-4
Malme-3M = test system: Malme-3M
NCI-H226 = test system: NCI-H226
NCI-H460 = test system: NCI-H460
OVCAR-8 = test system: OVCAR-8
PC-3 = test system: PC-3
RPMI-8226 = test system: RPMI-8226
SF-539 = test system: SF-539
SK-MEL-28 = test system: SK-MEL-28
SK-MEL-2 = test system: SK-MEL-2
SNB-19 = test system: SNB-19
SR = test system: SR
SW-620 = test system: SW-620
UACC-257 = test system: UACC-257

SMILES | GI50 (Hs-578T) | GI50 (IGROV-1) | GI50 (K562) | GI50 (KM12) | GI50 (LOX IMVI) | GI50 (MDA-N) | GI50 (MOLT-4) | GI50 (Malme-3M) | GI50 (NCI-H226) | GI50 (NCI-H460) | GI50 (OVCAR-8) | GI50 (PC-3) | GI50 (RPMI-8226) | GI50 (SF-539) | GI50 (SK-MEL-28) | GI50 (SK-MEL-2) | GI50 (SNB-19) | GI50 (SR) | GI50 (SW-620) | GI50 (UACC-257)
CC1OC(OC2C[C@](O)(C(=O)CF)Cc3c(O)c4c(c(O)c32)C(=O)c2ccccc2C4=O)CC(N)C1O (some centres undefined) | 0.0103 µM (active) | 0.0877 µM (active) | < 0.0153 µM (active) | 0.0305 µM (active) | < 0.01 µM (active) | 0.108 µM (active) | < 0.01 µM (active) | < 0.0109 µM (active) | < 0.01 µM (active) | < 0.01 µM (active) | 0.0115 µM (active) | 0.0275 µM (active) | < 0.01 µM (active) | 0.0561 µM (active) | 0.177 µM (active) | 0.168 µM (active) | < 0.014 µM (active) | < 0.01 µM (active) | < 0.0116 µM (active) | 0.0794 µM (active)
COC1=CCC2=C(CCN(C(=O)C3CCC3)C2Cc2ccc(OC)c(O)c2)C1 (centres undefined) | 14.6 µM (inactive) | 26.8 µM (inactive) | 4.45 µM (inactive) | 6.18 µM (inactive) | 36.6 µM (inactive) | 2.7 µM (inactive) | 12.7 µM (inactive) | 26.6 µM (inactive) | 49.1 µM (inactive) | 12.2 µM (inactive) | 37.2 µM (inactive) | 23.6 µM (inactive) | 29.4 µM (inactive) | 30.5 µM (inactive) | 45.3 µM (inactive) | 24.2 µM (inactive) | 35.8 µM (inactive) | 5.69 µM (inactive) | 12.8 µM (inactive) | 17.3 µM (inactive)
CC1=C(C(=O)NCC(C)O)CC(C(=O)NCC(C)O)=C(C)N1 (centres undefined) | > 100 µM (inactive) | > 100 µM (inactive) | > 100 µM (inactive) | > 100 µM (inactive) | > 100 µM (inactive) | > 100 µM (inactive) | > 100 µM (inactive) |  | 89.7 µM (inactive) | > 100 µM (inactive) | > 100 µM (inactive) | > 100 µM (inactive) | > 100 µM (inactive) | > 100 µM (inactive) | > 100 µM (inactive) | > 100 µM (inactive) | > 100 µM (inactive) | > 100 µM (inactive) | > 100 µM (inactive) | > 100 µM (inactive)
N=C(N)N/N=C/c1c(-c2ccc(Cl)cc2)nc2n1CCS2 | 24.3 µM (inactive) | 13.9 µM (inactive) | 2.98 µM (inactive) | 10.9 µM (inactive) | 4.49 µM (inactive) | 11 µM (inactive) | 2.68 µM (inactive) | 14.6 µM (inactive) | 20.1 µM (inactive) | 13.1 µM (inactive) | 15.2 µM (inactive) | 4.14 µM (inactive) | 7.53 µM (inactive) | 11.7 µM (inactive) | 12.7 µM (inactive) | 10.8 µM (inactive) | 15.6 µM (inactive) | 7.16 µM (inactive) | 5.89 µM (inactive) | 14.3 µM (inactive)
COc1cccc(C2ON=C(c3ccccc3)N2C23CC4CC(CC(C4)C2)C3)c1 (centres undefined) | > 10 µM (inactive) | > 10 µM (inactive) | 8.41 µM (inactive) | > 10 µM (inactive) | > 10 µM (inactive) | > 10 µM (inactive) | 5.5 µM (inactive) | > 10 µM (inactive) | 4.63 µM (inactive) | > 10 µM (inactive) | > 10 µM (inactive) | 9.35 µM (inactive) | 7.24 µM (inactive) | > 10 µM (inactive) | > 10 µM (inactive) | > 10 µM (inactive) | > 10 µM (inactive) | 2.09 µM (inactive) | > 10 µM (inactive) | > 10 µM (inactive)
Clc1ccc2ns[s+]c2c1 | 78 µM (inactive) | 40.3 µM (inactive) | 0.0611 µM (active) | 3.66 µM (inactive) | 1.29 µM (inactive) | 3.4 µM (inactive) | 1.71 µM (inactive) | 32.2 µM (inactive) | > 89.7 µM (inactive) | 5.83 µM (inactive) | 20.4 µM (inactive) | 0.847 µM (active) | 1.81 µM (inactive) | 3.53 µM (inactive) | 17.7 µM (inactive) | 9.35 µM (inactive) | 29.2 µM (inactive) | 1.34 µM (inactive) | 6.62 µM (inactive) | 14.5 µM (inactive)
COc1ccc(C(Nc2ncccn2)c2cc3c(cc2O)OCO3)cc1 (centres undefined) | 23.4 µM (inactive) | 23 µM (inactive) | 23.1 µM (inactive) | 17.9 µM (inactive) | 16.9 µM (inactive) | 18.3 µM (inactive) | 26.3 µM (inactive) | 26.1 µM (inactive) | 21.7 µM (inactive) | 20.1 µM (inactive) | 19.2 µM (inactive) | 19.5 µM (inactive) | 22.8 µM (inactive) | 15.2 µM (inactive) | 22.3 µM (inactive) | 20.7 µM (inactive) | 17.3 µM (inactive) | 7.14 µM (inactive) | 9.42 µM (inactive) | 18.9 µM (inactive)
Cc1ccccc1/N=C/N(C)C | 44.7 µM (inactive) | 37.3 µM (inactive) | 14.1 µM (inactive) |  | 23.8 µM (inactive) | 37.5 µM (inactive) | 29.9 µM (inactive) | 43.9 µM (inactive) | 48.4 µM (inactive) |  | 33.9 µM (inactive) | 26.7 µM (inactive) | 13.3 µM (inactive) | 61.8 µM (inactive) | 75.3 µM (inactive) | 15 µM (inactive) | 56.8 µM (inactive) | 11.4 µM (inactive) |  | 22 µM (inactive)
C=CC/C=C/Cc1csc(C(C)(C)C(O)C/C=C/C(=C)CCNC(=O)OC)n1 (centres undefined) | > 100 µM (inactive) | 28.4 µM (inactive) | 0.845 µM (active) | > 60.3 µM (inactive) | 44.6 µM (inactive) | 45.8 µM (inactive) | 36.1 µM (inactive) | > 91.8 µM (inactive) | > 100 µM (inactive) | 29.5 µM (inactive) | > 73.5 µM (inactive) | > 100 µM (inactive) | 30.7 µM (inactive) | > 100 µM (inactive) | > 87.1 µM (inactive) | > 100 µM (inactive) | > 100 µM (inactive) | 0.492 µM (active) | 26.7 µM (inactive) | 1.49 µM (inactive)
NC(=O)NO [HYDROXYUREA] | 740 µM (inactive) | 1110 µM (inactive) | 877 µM (inactive) | 902 µM (inactive) | 700 µM (inactive) | 1940 µM (inactive) | 222 µM (inactive) | 1170 µM (inactive) | 773 µM (inactive) | 344 µM (inactive) | 504 µM (inactive) | 1010 µM (inactive) | 277 µM (inactive) | 315 µM (inactive) | 1920 µM (inactive) | 2000 µM (inactive) | 1580 µM (inactive) | 217 µM (inactive) | 1090 µM (inactive) | 1810 µM (inactive)
CC(C#N)(c1ccccc1)N(CCc1ccccc1)C(=O)Oc1ccccc1 (centres undefined) | 35.5 µM (inactive) | > 100 µM (inactive) | > 100 µM (inactive) | > 100 µM (inactive) | > 100 µM (inactive) | > 100 µM (inactive) | > 100 µM (inactive) | > 100 µM (inactive) | 38.5 µM (inactive) |  | > 100 µM (inactive) | > 100 µM (inactive) | > 100 µM (inactive) | > 100 µM (inactive) | > 100 µM (inactive) | > 100 µM (inactive) | 44.2 µM (inactive) | > 100 µM (inactive) | > 100 µM (inactive) | > 100 µM (inactive)
CC1(C)SC2C(NC(=O)Cc3ccccc3)C(=O)N2C1C(=O)O (centres undefined) | > 100 µM (inactive) | > 100 µM (inactive) | > 100 µM (inactive) | > 100 µM (inactive) | > 100 µM (inactive) | > 100 µM (inactive) | > 100 µM (inactive) | > 100 µM (inactive) | 34 µM (inactive) | > 100 µM (inactive) | > 100 µM (inactive) | > 100 µM (inactive) |  | > 100 µM (inactive) | > 100 µM (inactive) | > 100 µM (inactive) | > 100 µM (inactive) | > 100 µM (inactive) | > 100 µM (inactive) | > 100 µM (inactive)
O=C(O)CCc1nc2c(n1Cc1ccccc1)C(=O)c1ccccc1C2=O | 66.5 µM (inactive) | 70.3 µM (inactive) | 57.3 µM (inactive) | 52.4 µM (inactive) | 27.2 µM (inactive) | 21.5 µM (inactive) | 68.9 µM (inactive) |  | > 100 µM (inactive) | 37.9 µM (inactive) | 49.4 µM (inactive) | 72.9 µM (inactive) | 39 µM (inactive) | 28.1 µM (inactive) | > 100 µM (inactive) | 26 µM (inactive) | > 100 µM (inactive) | 51.4 µM (inactive) | 31.8 µM (inactive) | 33.7 µM (inactive)
O=C(O)C1CSC2(CCCN(Cc3ccccc3)C2)N1 (centres undefined) | > 100 µM (inactive) | > 100 µM (inactive) | > 28.8 µM (inactive) | > 100 µM (inactive) | > 100 µM (inactive) | > 100 µM (inactive) | > 20.7 µM (inactive) | > 100 µM (inactive) | > 100 µM (inactive) | > 100 µM (inactive) | > 100 µM (inactive) | > 100 µM (inactive) |  | > 100 µM (inactive) | > 100 µM (inactive) | > 100 µM (inactive) | > 100 µM (inactive) | 4.81 µM (inactive) | > 100 µM (inactive) | > 100 µM (inactive)
CC1(C)CN=C(c2ccc3ccccc3c2O)N1 | > 100 µM (inactive) | > 100 µM (inactive) | > 100 µM (inactive) | > 100 µM (inactive) | > 100 µM (inactive) | > 100 µM (inactive) | > 100 µM (inactive) |  |  | > 100 µM (inactive) |  | > 100 µM (inactive) | > 100 µM (inactive) | > 100 µM (inactive) | > 100 µM (inactive) | > 100 µM (inactive) | > 100 µM (inactive) | > 100 µM (inactive) | > 100 µM (inactive) | > 100 µM (inactive)
